What was measured:
Test in all cases: relative viability (nuclei count vs DMSO), 5 days (fraction); higher = more cells survive
[1] = tested on: NCI-H2023
In short: (§1)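 Five library-drug doses in √10 steps were combined with a fixed anchor-drug dose, or a single drug was given alone, by pin tool to lung cancer cell lines in 1536-well plates the day after seeding. Nuclei were stained and counted after 5 days. Relative viability is the nuclei count in treated wells over that in vehicle wells, taken as the median of duplicate plates.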

[2] = tested on: NCI-H1993
In short: as §1

[3] = tested on: NCI-H650
In short: as §1

[4] = tested on: NCI-H1395
In short: as §1

[5] = tested on: LOU-NH91
In short: as §1

[6] = tested on: NCI-H1975
In short: as §1

[7] = tested on: NCI-H2228
In short: as §1

[8] = tested on: NCI-H2405
In short: as §1

[9] = tested on: LU99A
In short: as §1

[10] = tested on: NCI-H460
In short: as §1

[11] = tested on: SW 1573
In short: as §1

[12] = tested on: NCI-H1915
In short: as §1

[13] = tested on: A-427
In short: as §1

[14] = tested on: HARA
In short: as §1

[15] = tested on: RERF-LC-KJ
In short: as §1

[16] = tested on: EKVX
In short: as §1

[17] = tested on: BEN
In short: as §1

[18] = tested on: NCI-H1793
In short: as §1

[19] = tested on: COR-L23
In short: as §1

[20] = tested on: NCI-H838
In short: as §1

[21] = tested on: NCI-H1650
In short: as §1

[22] = tested on: NCI-H1666
In short: as §1

## COCC1(CO)C(=O)C2CCN1CC2 (centres undefined) [PRIMA-1MET] + Nc1nc2[nH]cc(CCc3ccc(C(=O)N[C@@H](CCC(=O)O)C(=O)O)cc3)c2c(=O)[nH]1 [Pemetrexed] (partner 0.2 µM)
[1]; first compound 0.2 µM
  relative viability: 0.224
[1]; first compound 0.6325 µM
  relative viability: 0.23
[1]; first compound 2 µM
  relative viability: 0.28
[1]; first compound 6.325 µM
  relative viability: 0.237
[1]; first compound 20 µM
  relative viability: 0.147
[2]; first compound 0.2 µM
  relative viability: 0.592
[2]; first compound 2 µM
  relative viability: 0.592
[2]; first compound 6.325 µM
  relative viability: 0.534
[2]; first compound 20 µM
  relative viability: 0.557
[3]; first compound 0.2 µM
  relative viability: 1.26
[3]; first compound 0.6325 µM
  relative viability: 0.894
[3]; first compound 2 µM
  relative viability: 0.884
[3]; first compound 6.325 µM
  relative viability: 0.978
[3]; first compound 20 µM
  relative viability: 0.263
[4]; first compound 0.2 µM
  relative viability: 0.842
[4]; first compound 2 µM
  relative viability: 0.771
[4]; first compound 6.325 µM
  relative viability: 0.881
[4]; first compound 20 µM
  relative viability: 0.154
[5]; first compound 0.2 µM
  relative viability: 0.356
[5]; first compound 0.6325 µM
  relative viability: 0.367
[5]; first compound 2 µM
  relative viability: 0.405
[5]; first compound 6.325 µM
  relative viability: 0.4
[5]; first compound 20 µM
  relative viability: 0.344
[6]; first compound 0.2 µM
  relative viability: 0.31
[6]; first compound 0.6325 µM
  relative viability: 0.266
[6]; first compound 2 µM
  relative viability: 0.28
[6]; first compound 6.325 µM
  relative viability: 0.292
[6]; first compound 20 µM
  relative viability: 0.282
[7]; first compound 0.2 µM
  relative viability: 0.351
[7]; first compound 0.6325 µM
  relative viability: 0.332
[7]; first compound 2 µM
  relative viability: 0.3
[7]; first compound 6.325 µM
  relative viability: 0.305
[7]; first compound 20 µM
  relative viability: 0.0521
[8]; first compound 0.2 µM
  relative viability: 1.01
[8]; first compound 0.6325 µM
  relative viability: 0.986
[8]; first compound 6.325 µM
  relative viability: 0.974
[8]; first compound 20 µM
  relative viability: 0.0844
[9]; first compound 0.2 µM
  relative viability: 0.191
[9]; first compound 0.6325 µM
  relative viability: 0.161
[9]; first compound 2 µM
  relative viability: 0.201
[9]; first compound 6.325 µM
  relative viability: 0.179
[9]; first compound 20 µM
  relative viability: 0.187
[10]; first compound 0.2 µM
  relative viability: 0.0602
[10]; first compound 0.6325 µM
  relative viability: 0.051
[10]; first compound 2 µM
  relative viability: 0.0601
[10]; first compound 6.325 µM
  relative viability: 0.0553
[10]; first compound 20 µM
  relative viability: 0.0386
[11]; first compound 0.2 µM
  relative viability: 0.882
[11]; first compound 0.6325 µM
  relative viability: 0.89
[11]; first compound 2 µM
  relative viability: 0.752
[11]; first compound 6.325 µM
  relative viability: 0.0377
[11]; first compound 20 µM
  relative viability: 0.0278
[12]; first compound 0.2 µM
  relative viability: 0.54
[12]; first compound 0.6325 µM
  relative viability: 0.522
[12]; first compound 2 µM
  relative viability: 0.466
[12]; first compound 6.325 µM
  relative viability: 0.511
[12]; first compound 20 µM
  relative viability: 0.467
[13]; first compound 0.2 µM
  relative viability: 1.11
[13]; first compound 0.6325 µM
  relative viability: 0.92
[13]; first compound 2 µM
  relative viability: 0.953
[13]; first compound 6.325 µM
  relative viability: 1.06
[13]; first compound 20 µM
  relative viability: 0.962
[14]; first compound 0.2 µM
  relative viability: 0.278
[14]; first compound 0.6325 µM
  relative viability: 0.232
[14]; first compound 2 µM
  relative viability: 0.209
[14]; first compound 6.325 µM
  relative viability: 0.243
[14]; first compound 20 µM
  relative viability: 0.247
[15]; first compound 0.2 µM
  relative viability: 0.49
[15]; first compound 0.6325 µM
  relative viability: 0.484
[15]; first compound 2 µM
  relative viability: 0.472
[15]; first compound 6.325 µM
  relative viability: 0.495
[15]; first compound 20 µM
  relative viability: 0.472
[16]; first compound 0.2 µM
  relative viability: 0.448
[16]; first compound 2 µM
  relative viability: 0.385
[16]; first compound 6.325 µM
  relative viability: 0.447
[16]; first compound 20 µM
  relative viability: 0.385
[17]; first compound 0.2 µM
  relative viability: 0.898
[17]; first compound 0.6325 µM
  relative viability: 0.421
[17]; first compound 6.325 µM
  relative viability: 0.801
[17]; first compound 20 µM
  relative viability: 0.834
[18]; first compound 0.2 µM
  relative viability: 0.964
[18]; first compound 0.6325 µM
  relative viability: 0.803
[18]; first compound 6.325 µM
  relative viability: 1.09
[18]; first compound 20 µM
  relative viability: 0.919
[19]; first compound 0.2 µM
  relative viability: 0.184
[19]; first compound 0.6325 µM
  relative viability: 0.199
[19]; first compound 2 µM
  relative viability: 0.191
[19]; first compound 6.325 µM
  relative viability: 0.192
[19]; first compound 20 µM
  relative viability: 0.0784
[20]; first compound 0.2 µM
  relative viability: 0.247
[20]; first compound 0.6325 µM
  relative viability: 0.249
[20]; first compound 2 µM
  relative viability: 0.261
[20]; first compound 6.325 µM
  relative viability: 0.264
[20]; first compound 20 µM
  relative viability: 0.174
[21]; first compound 0.2 µM
  relative viability: 0.407
[21]; first compound 0.6325 µM
  relative viability: 0.306
[21]; first compound 2 µM
  relative viability: 0.399
[21]; first compound 6.325 µM
  relative viability: 0.374
[21]; first compound 20 µM
  relative viability: 0.304
[22]; first compound 0.2 µM
  relative viability: 0.949
[22]; first compound 0.6325 µM
  relative viability: 0.824
[22]; first compound 2 µM
  relative viability: 0.742
[22]; first compound 6.325 µM
  relative viability: 0.793
[22]; first compound 20 µM
  relative viability: 0.814

Reference: the supplement of paper PMC10307832
